# In ChEMBL document CHEMBL5030519, “A "Two-Birds-One-Stone" Approach toward the Design of Bifunctional Human Immunodeficiency Virus Type 1 Entry Inhibitors Targeting the CCR5 Coreceptor and gp41 N-Terminal Heptad Repeat Region” (J Med Chem, 2021):
# Residues, ends and D or L forms follow the SMILES beside them. Groups on a side chain read outwards from the residue. *: point of attachment. X1 = CC(=O)N1CCC(C(=O)N(CCCN2CCC(Cc3ccc(C(=O)*)cc3)CC2)c2ccc(C)c(Cl)c2)CC1; PEG12 = NCCOCCOCCOCCOCCOCCOCCOCCOCCOCCOCCOCCOCCC(=O)O
# How the values were obtained:
# [1] = test system: Human immunodeficiency virus 1; format: functional, organism-based, V38A/N427; details: cemx174 5.25m7
# [2] = test system: Human immunodeficiency virus 1; format: functional, organism-based, N427/N43K; details: cemx174 5.25m7
# [3] = test system: Human immunodeficiency virus 1; format: functional, organism-based, V38E/N42S; details: cemx174 5.25m7
# [4] = test system: Human immunodeficiency virus 1; format: functional, organism-based; details: Human immunodeficiency virus 1, BaL (subtype B, R5), CEMx174 5.25M7, 144 h
# [5] = test system: Human immunodeficiency virus 1; format: functional, organism-based, D36G; details: cemx174 5.25m7
Compound,EC50 [1] [µM],EC50 [2] [µM],EC50 [3] [µM],EC50 [4] [µM],EC50 [5] [µM]
enfuvirtide,0.656,0.673,0.261,0.00158,0.00431
CC[C@H](C)[C@H](NC(=O)[C@H](CC(C)C)NC(=O)[C@H](CO)NC(=O)[C@H](Cc1cnc[nH]1)NC(=O)[C@@H](NC(=O)[C@H](CC(C)C)NC(=O)[C@H](CO)NC(=O)[C@@H](NC(=O)[C@H](Cc1ccc(O)cc1)NC(=O)[C@H](CC(N)=O)NC(=O)[C@H](CC(N)=O)NC(C)=O)[C@@H](C)O)[C@@H](C)CC)C(=O)N[C@@H](CCC(=O)O)C(=O)N[C@@H](CCC(=O)O)C(=O)N[C@@H](CO)C(=O)N[C@@H](CCC(N)=O)C(=O)N[C@@H](CC(N)=O)C(=O)N[C@@H](CCC(N)=O)C(=O)N[C@@H](CCC(N)=O)C(=O)N[C@@H](CCC(=O)O)C(=O)N[C@@H](CCCCN)C(=O)N[C@@H](CC(N)=O)C(=O)N[C@@H](CCC(=O)O)C(=O)N[C@@H](CCC(N)=O)C(=O)N[C@@H](CCC(=O)O)C(=O)N[C@@H](CC(C)C)C(=O)N[C@@H](CC(C)C)C(=O)N[C@@H](CCCCNC(=O)CCOCCOCCOCCOCCOCCOCCOCCOCCOCCOCCOCCOCCNC(=O)c1ccc(CC2CCN(CCCN(C(=O)C3CCN(C(C)=O)CC3)c3ccc(C)c(Cl)c3)CC2)cc1)C(N)=O (Ac-NNYTSLIHSLIEESQNQQEKNEQELLK([PEG12-X1])-NH2),,,,> 0.05,
